According to ChEMBL document CHEMBL5050844 (2019):
Values belong to the compound of their own block, whether it stands above or below them.

Tests used:
[1] = Induction of anti-CD3/CD28 antibodies-stimulated human T cell activation at 1 uM assessed fold increase in CD25 expression measured by ELISA assay; type: functional, T cell line
[2] = Induction of anti-CD3 antibodies-stimulated human T cell activation at 8 uM assessed fold increase in IL-2 secretion measured by ELISA assay; type: functional, T cell line; also: reference of the scale not given here
[3] = Induction of anti-CD3 antibodies-stimulated human T cell activation at 1 uM assessed fold increase in CD25 expression measured by ELISA assay; type: functional, T cell line; also: reference of the scale not given here
[4] = target: E3 ubiquitin-protein ligase CBL-B (Homo sapiens, UniProt Q13191); assay: Inhibition of N-terminal Avi-tagged human CBL-B (36 to 427 residues) incubated with 60 nM Src kinase for 1.5 hrs followed by incubation with fluorescently labeled UbcH5B-Ub for 1 hr and measured by TR-FRET assay; type: single protein
E3 ubiquitin-protein ligase CBL-B, sequence (Q13191 whole entry, the tested form may be a part): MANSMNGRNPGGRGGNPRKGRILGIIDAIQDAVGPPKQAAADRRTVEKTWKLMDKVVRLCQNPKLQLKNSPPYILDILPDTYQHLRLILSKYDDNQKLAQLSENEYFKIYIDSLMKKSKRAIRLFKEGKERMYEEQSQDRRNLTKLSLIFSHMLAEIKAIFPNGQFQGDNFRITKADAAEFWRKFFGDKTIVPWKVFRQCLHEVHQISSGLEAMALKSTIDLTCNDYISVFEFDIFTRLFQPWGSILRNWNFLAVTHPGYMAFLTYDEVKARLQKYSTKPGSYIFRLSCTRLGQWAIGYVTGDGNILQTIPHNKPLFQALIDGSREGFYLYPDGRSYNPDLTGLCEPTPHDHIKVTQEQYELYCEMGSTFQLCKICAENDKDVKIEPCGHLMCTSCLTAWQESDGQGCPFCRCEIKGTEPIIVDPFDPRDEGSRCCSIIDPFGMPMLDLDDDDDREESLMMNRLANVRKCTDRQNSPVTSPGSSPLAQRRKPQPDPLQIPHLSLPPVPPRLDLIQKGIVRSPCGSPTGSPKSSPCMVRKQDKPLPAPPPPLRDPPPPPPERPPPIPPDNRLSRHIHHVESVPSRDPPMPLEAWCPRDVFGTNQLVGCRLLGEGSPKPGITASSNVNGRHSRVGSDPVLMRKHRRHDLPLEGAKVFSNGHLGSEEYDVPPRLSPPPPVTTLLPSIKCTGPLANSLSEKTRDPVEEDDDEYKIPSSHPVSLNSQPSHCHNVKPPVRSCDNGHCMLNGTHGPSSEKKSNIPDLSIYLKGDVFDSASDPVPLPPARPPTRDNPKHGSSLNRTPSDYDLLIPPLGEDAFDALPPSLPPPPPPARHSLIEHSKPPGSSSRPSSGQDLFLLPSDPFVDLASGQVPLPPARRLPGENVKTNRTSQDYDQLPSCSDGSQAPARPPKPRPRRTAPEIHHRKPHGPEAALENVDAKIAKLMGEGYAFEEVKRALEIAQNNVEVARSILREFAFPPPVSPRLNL

[5] = Induction of anti-CD3/CD28 antibodies-stimulated human T cell activation at 0.3 uM assessed fold increase in IL-2 secretion measured by ELISA assay; type: functional, T cell line
[6] = Induction of anti-CD3/CD28 antibodies-stimulated human T cell activation at 0.3 uM assessed fold increase in CD25 expression measured by ELISA assay; type: functional, T cell line
[7] = Induction of anti-CD3 antibodies-stimulated human T cell activation at 8 uM assessed fold increase in CD25 expression measured by ELISA assay; type: functional, T cell line; also: reference of the scale not given here
[8] = Induction of anti-CD3 antibodies-stimulated human T cell activation at 1 uM assessed fold increase in IL-2 secretion measured by ELISA assay; type: functional, T cell line; also: reference of the scale not given here
[9] = Induction of anti-CD3/CD28 antibodies-stimulated human T cell activation at 1 uM assessed fold increase in IL-2 secretion measured by ELISA assay; type: functional, T cell line
[10] = Induction of anti-CD3/CD28 antibodies-stimulated human T cell activation at 4 uM assessed fold increase in IL-2 secretion measured by ELISA assay; type: functional, T cell line
[11] = Induction of anti-CD3/CD28 antibodies-stimulated human T cell activation at 4 uM assessed fold increase in CD25 expression measured by ELISA assay; type: functional, T cell line

IC50 [4]: < 100 nM
Structure (SMILES): Cn1cnnc1CC1(c2cccc(N3Cc4c(cc(CN5CC(C)(C#N)C5)cc4C(F)(F)F)C3=O)c2)COC1
fold change (FC) [1]: 1.31 | fold change (FC) [2]: 0.051 | fold change (FC) [3]: 0.601 | fold change (FC) [5]: 2.51 | fold change (FC) [6]: 1.01 | fold change (FC) [7]: <=0.6 | fold change (FC) [8]: 0.151 | fold change (FC) [9]: >=7.5 | fold change (FC) [10]: >=7.5 | fold change (FC) [11]: 1.51

IC50 [4]: < 100 nM
Structure (SMILES): C[C@H]1C=CCN1Cc1cc2c(c(C(F)(F)F)c1)CN(c1cccc(C3(Cc4nncn4C)COC3)c1)C2=O
fold change (FC) [1]: 1.51 | fold change (FC) [2]: >=0.201 | fold change (FC) [3]: >=1.001 | fold change (FC) [5]: >=7.5 | fold change (FC) [6]: 1.31 | fold change (FC) [7]: >=1.001 | fold change (FC) [8]: >=0.201 | fold change (FC) [9]: >=7.5 | fold change (FC) [10]: >=7.5 | fold change (FC) [11]: 1.51

IC50 [4]: < 100 nM
Structure (SMILES): Cn1cnnc1CC1(c2cccc(N3Cc4c(cc(CN5CC(C(=O)O)C5)cc4C(F)(F)F)C3=O)c2)COC1
fold change (FC) [1]: 1.01 | fold change (FC) [2]: >=0.201 | fold change (FC) [3]: 0.801 | fold change (FC) [5]: 1.01 | fold change (FC) [6]: 1.01 | fold change (FC) [7]: >=1.001 | fold change (FC) [8]: 0.151 | fold change (FC) [9]: 1.01 | fold change (FC) [10]: 1.01 | fold change (FC) [11]: 1.01

IC50 [4]: ≤ 300 nM
Structure (SMILES): C[C@H](Cc1nocc1C(F)(F)F)c1cccc(N2Cc3c(cc(C(=O)N4CC[C@H](F)C4)cc3C(F)(F)F)C2=O)c1
fold change (FC) [1]: 1.01 | fold change (FC) [2]: 0.101 | fold change (FC) [3]: 0.601 | fold change (FC) [5]: 1.01 | fold change (FC) [6]: 1.01 | fold change (FC) [7]: >=1.001 | fold change (FC) [8]: <=0.05 | fold change (FC) [9]: 1.01 | fold change (FC) [10]: 2.51 | fold change (FC) [11]: 1.31

IC50 [4]: < 100 nM
Structure (SMILES): Cn1cnnc1CC1(c2cccc(N3Cc4c(cc(CN5CC(C#N)C5)cc4C(F)(F)F)C3=O)c2)COC1
fold change (FC) [1]: 1.01 | fold change (FC) [2]: >=0.201 | fold change (FC) [3]: 0.801 | fold change (FC) [5]: 2.51 | fold change (FC) [6]: 1.01 | fold change (FC) [7]: >=1.001 | fold change (FC) [8]: 0.151 | fold change (FC) [9]: 5 | fold change (FC) [10]: >=7.5 | fold change (FC) [11]: 1.31

IC50 [4]: < 100 nM
Structure (SMILES): C[C@H](Cc1nncn1C)c1cccc(NC(=O)c2cc3cc(N4CCN(C)C(=O)C4)ccc3cn2)c1.O=C(O)C(F)(F)F
fold change (FC) [1]: 1.31 | fold change (FC) [2]: >=0.201 | fold change (FC) [3]: <=0.6 | fold change (FC) [5]: 5 | fold change (FC) [6]: 1.31 | fold change (FC) [7]: >=1.001 | fold change (FC) [8]: >=0.201 | fold change (FC) [9]: 5 | fold change (FC) [10]: >=7.5 | fold change (FC) [11]: 1.51

IC50 [4]: < 100 nM
Structure (SMILES): Cn1cnnc1CC1(c2cccc(N3Cc4c(cccc4C(F)(F)F)C3=O)c2)CC1
fold change (FC) [1]: 1.01 | fold change (FC) [2]: >=0.201 | fold change (FC) [3]: >=1.001 | fold change (FC) [5]: 2.51 | fold change (FC) [6]: <=1 | fold change (FC) [7]: >=1.001 | fold change (FC) [8]: 0.051 | fold change (FC) [9]: 2.51 | fold change (FC) [10]: 5 | fold change (FC) [11]: 1.01

IC50 [4]: < 100 nM
Structure (SMILES): C[C@H](Sc1nncn1C)c1cccc(NC(=O)c2ccc(F)c(C3CC3)n2)c1
fold change (FC) [1]: <=1 | fold change (FC) [2]: 0.101 | fold change (FC) [3]: 0.601 | fold change (FC) [5]: 1.01 | fold change (FC) [6]: <=1 | fold change (FC) [7]: >=1.001 | fold change (FC) [8]: <=0.05 | fold change (FC) [9]: 2.51 | fold change (FC) [10]: >=7.5 | fold change (FC) [11]: 1.01

IC50 [4]: < 100 nM
Structure (SMILES): C[C@H](Cc1nncn1C)c1cc(NC2COC2)nc(N2Cc3c(cccc3C(F)(F)F)C2=O)c1
fold change (FC) [1]: 1.01 | fold change (FC) [2]: >=0.201 | fold change (FC) [3]: 0.801 | fold change (FC) [5]: 1.01 | fold change (FC) [6]: 1.01 | fold change (FC) [7]: >=1.001 | fold change (FC) [8]: 0.051 | fold change (FC) [9]: 1.01 | fold change (FC) [10]: 5 | fold change (FC) [11]: 1.31
